From patent US12685312B2, “Sulfonamide apyrase inhibitors” (Texas Crop Science, Inc., priority 2022, dated 2026)

System: apyrase
Experiment: Screen for apyrase inhibitors (Method 1, in vitro phosphate-release absorbance assay)
Assay type: biochemical
Details: inhibitor conc at 1 mM stock, 1 hr room temperature, absorbance 630 nm; rounded average of two assay results
How it was run: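 Phosphate-release colorimetric assay (Windsor method) in 60 mM Hepes, 3 mM MgCl2, 3 mM CaCl2, 3 mM ATP, pH 6.5, with compound or DMSO control added. Released phosphate developed with ammonium molybdate and ascorbic acid/TCA, then stopped with citrate/acetic acid.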

Row | % Inhibition of Apyrase | SMILES
1 | 25% | Cc1ccnc(NC(=O)c2cccc(NS(=O)(=O)c3ccc4c(c3)OCCCO4)c2)c1 [I-663, 3-((3,4-dihydro-2H-benzo[b][1,4]dioxepine)-7-sulfonamido)-N-(4-methylpyridin-2-yl)benzamide]
2 | 24% | Cc1nc2cc(NC(=O)c3cccc(NS(=O)(=O)c4cccs4)c3)ccc2o1 [I-664, N-(2-methylbenzo[d]oxazol-5-yl)-3-(thiophene-2-sulfonamido)benzamide]
3 | 22% | O=C(Nc1ccccc1Cl)c1cccc(NS(=O)(=O)c2cccs2)c1 [I-665, N-(2-chlorophenyl)-3-(thiophene-2-sulfonamido)benzamide]
4 | 21% | O=C(Nc1ccc(Br)cn1)c1cccc(NS(=O)(=O)c2ccc(F)c(Cl)c2)c1 [I-666, N-(5-bromopyridin-2-yl)-3-((3-chloro-4-fluorophenyl)sulfonamido)benzamide]
5 | 12% | Cc1csc(NC(=O)c2cccc(NS(=O)(=O)c3ccccc3)c2)n1 [I-667, N-(4-methylthiazol-2-yl)-3-(phenylsulfonamido)benzamide]
6 | 10% | O=C(Nc1cnccc1O)c1cccc(NS(=O)(=O)c2ccc(Cl)c(Cl)c2)c1 [I-668, 3-((3,4-dichlorophenyl)sulfonamido)-N-(4-hydroxypyridin-3-yl)benzamide]
7 | 7% | Cc1ccc(C)c(S(=O)(=O)Nc2cccc(C(=O)Nc3cnccn3)c2)c1 [I-669, 3-((2,5-dimethylphenyl)sulfonamido)-N-(pyrazin-2-yl)benzamide]
8 | 6% | O=C(Nc1cnccn1)c1cccc(NS(=O)(=O)c2ccccc2)c1 [I-670, 3-(phenylsulfonamido)-N-(pyrazin-2-yl)benzamide]
9 | 2% | CCOc1ccc(S(=O)(=O)Nc2cccc(C(=O)Nc3nnc[nH]3)c2)cc1 [I-671, 3-((4-ethoxyphenyl)sulfonamido)-N-(4H-1,2,4-triazol-3-yl)benzamide]
10 | 1% | O=C(Nc1nnc[nH]1)c1cccc(NS(=O)(=O)c2ccc(Br)cc2)c1 [I-672, 3-((4-bromophenyl)sulfonamido)-N-(4H-1,2,4-triazol-3-yl)benzamide]
11 | 79% | O=C(Nc1cccc(S(=O)(=O)Nc2ccc(Br)cc2)c1)c1ccsc1 [I-701, N-(3-(N-(4-bromophenyl)sulfamoyl)phenyl)thiophene-3-carboxamide]
12 | 73% | O=C(Nc1cccc(S(=O)(=O)Nc2ccc(Br)cc2)c1)c1ccc([N+](=O)[O-])s1 [I-702, N-(3-(N-(4-bromophenyl)sulfamoyl)phenyl)-5-nitrothiophene-2-carboxamide]
13 | 71% | O=C(Nc1cccc(S(=O)(=O)Nc2ccc(Br)cc2)c1)c1ccc(Cl)nc1 [I-703, N-(3-(N-(4-bromophenyl)sulfamoyl)phenyl)-6-chloronicotinamide]
14 | 65% | CN(c1ccccc1)S(=O)(=O)c1cccc(NC(=O)c2cc3cc(F)ccc3[nH]2)c1 [I-704, 5-fluoro-N-(3-(N-methyl-N-phenylsulfamoyl)phenyl)-1H-indole-2-carboxamide]
15 | 64% | Cc1cc(C(=O)Nc2cccc(S(=O)(=O)Nc3ccccc3F)c2)c(C)n1C1CC1 [I-705, 1-cyclopropyl-N-(3-(N-(2-fluorophenyl)sulfamoyl)phenyl)-2,5-dimethyl-1H-pyrrole-3-carboxamide]
16 | 62% | CN(c1ccccc1)S(=O)(=O)c1cccc(NC(=O)c2ccc(Br)s2)c1 [I-706, 5-bromo-N-(3-(N-methyl-N-phenylsulfamoyl)phenyl)thiophene-2-carboxamide]
17 | 62% | COc1ccccc1NS(=O)(=O)c1cccc(NC(=O)c2c[nH]c3ccccc23)c1 [I-707, N-(3-(N-(2-methoxyphenyl)sulfamoyl)phenyl)-1H-indole-3-carboxamide]
18 | 61% | Cc1cccc(C(=O)Nc2cccc(S(=O)(=O)Nc3cccc(C(F)(F)F)c3)c2)n1 [I-708, 6-methyl-N-(3-(N-(3-(trifluoromethyl)phenyl)sulfamoyl)phenyl) picolinamide]
19 | 61% | O=C(Nc1cccc(S(=O)(=O)Nc2ccc(Cl)cc2)c1)c1cc2c(s1)CCCC2 [I-709, N-(3-(N-(4-chlorophenyl)sulfamoyl)phenyl)-4,5,6,7-tetrahydrobenzo[b]thiophene-2-carboxamide]
20 | 60% | CN(c1ccccc1)S(=O)(=O)c1cccc(NC(=O)c2cccs2)c1 [I-710, N-(3-(N-methyl-N-phenylsulfamoyl)phenyl)thiophene-2-carboxamide]
21 | 60% | CCOc1ncccc1C(=O)Nc1cccc(S(=O)(=O)N(C)c2ccccc2)c1 [I-711, 2-ethoxy-N-(3-(N-methyl-N-phenylsulfamoyl)phenyl)nicotinamide]
22 | 59% | O=C(Nc1cccc(S(=O)(=O)Nc2ccc(Cl)cc2)c1)c1ccoc1 [I-712, N-(3-(N-(4-chlorophenyl)sulfamoyl)phenyl)furan-3-carboxamide]

Row | % Inhibition of Apyrase | SMILES
23 | 58% | Cc1cc(C(=O)Nc2cccc(S(=O)(=O)Nc3ccccc3Cl)c2)sc1C [I-713, N-(3-(N-(2-chlorophenyl)sulfamoyl)phenyl)-4,5-dimethylthiophene-2-carboxamide]
24 | 58% | COc1ccc(NS(=O)(=O)c2cccc(NC(=O)c3ccc(Cl)nc3)c2)cc1 [I-714, 6-chloro-N-(3-(N-(4-methoxyphenyl)sulfamoyl)phenyl) nicotinamide]
25 | 58% | O=C(Nc1cccc(S(=O)(=O)Nc2cccc(C(F)(F)F)c2)c1)c1cc2ccccc2o1 [I-715, N-(3-(N-(3-(trifluoromethyl)phenyl)sulfamoyl)phenyl) benzofuran-2-carboxamide]
26 | 58% | CN(c1ccccc1)S(=O)(=O)c1cccc(NC(=O)c2ccsc2)c1 [I-716, N-(3-(N-methyl-N-phenylsulfamoyl)phenyl)thiophene-3-carboxamide]
27 | 58% | O=C(Nc1cccc(S(=O)(=O)Nc2ccc(Cl)cc2)c1)c1ccsc1 [I-717, N-(3-(N-(4-chlorophenyl)sulfamoyl)phenyl)thiophene-3-carboxamide]
28 | 58% | O=C(Nc1cccc(S(=O)(=O)Nc2cccc(C(F)(F)F)c2)c1)c1ccsc1 [I-718, N-(3-(N-(3-(trifluoromethyl)phenyl)sulfamoyl)phenyl) thiophene-3-carboxamide]
29 | 58% | CN(c1ccccc1)S(=O)(=O)c1cccc(NC(=O)c2cncc(Br)c2)c1 [I-720, 5-bromo-N-(3-(N-methyl-N-phenylsulfamoyl)phenyl)nicotinamide]
30 | 57% | COC(=O)c1c(C)[nH]c(C(=O)Nc2cccc(S(=O)(=O)Nc3cccc(C(F)(F)F)c3)c2)c1C [I-721, methyl 2,4-dimethyl-5-((3-(N-(3-(trifluoromethyl)phenyl)sulfamoyl)phenyl)carbamoyl)-1H-pyrrole-3-carboxylate]
31 | 57% | CN(c1ccccc1)S(=O)(=O)c1cccc(NC(=O)c2ccc(Br)o2)c1 [I-722, 5-bromo-N-(3-(N-methyl-N-phenylsulfamoyl)phenyl)furan-2-carboxamide]
32 | 57% | O=C(Nc1cccc(S(=O)(=O)Nc2ccc(I)cc2)c1)c1ccccn1 [I-723, N-(3-(N-(4-iodophenyl)sulfamoyl)phenyl)picolinamide]
33 | 57% | O=C(Nc1cccc(S(=O)(=O)Nc2cccc(C(F)(F)F)c2)c1)c1cc2c(s1)CCCC2 [I-724, N-(3-(N-(3-(trifluoromethyl)phenyl)sulfamoyl)phenyl)-4,5,6,7-tetrahydrobenzo[b]thiophene-2-carboxamide]
34 | 57% | O=C(Nc1cccc(S(=O)(=O)Nc2cccc(C(F)(F)F)c2)c1)c1ccc(Cl)nc1 [I-725, 6-chloro-N-(3-(N-(3-(trifluoromethyl)phenyl)sulfamoyl)phenyl) nicotinamide]
35 | 56% | O=C(Nc1cccc(S(=O)(=O)Nc2cccc(Cl)c2)c1)c1ccc(Br)s1 [I-726, 5-bromo-N-(3-(N-(3-chlorophenyl)sulfamoyl)phenyl)thiophene-2-carboxamide]
36 | 56% | COc1ccc(NS(=O)(=O)c2cccc(NC(=O)c3[nH]c(C)c(C(C)=O)c3C)c2)cc1 [I-727, 4-acetyl-N-(3-(N-(4-methoxyphenyl)sulfamoyl)phenyl)-3,5-dimethyl-1H-pyrrole-2-carboxamide]
37 | 56% | O=C(Nc1cccc(S(=O)(=O)Nc2ccc(SC(F)F)cc2)c1)c1ccsc1 [I-728, N-(3-(N-(4-((difluoromethyl)thio)phenyl)sulfamoyl)phenyl) thiophene-3-carboxamide]
38 | 56% | O=C(Nc1cccc(S(=O)(=O)Nc2ccccc2)c1)c1cccc(Cl)n1 [I-729, 6-chloro-N-(3-(N-phenylsulfamoyl)phenyl)picolinamide]
39 | 55% | O=C(Nc1cccc(S(=O)(=O)Nc2ccccc2Cl)c1)c1ccc([N+](=O)[O-])s1 [I-730, N-(3-(N-(2-chlorophenyl)sulfamoyl)phenyl)-5-nitrothiophene-2-carboxamide]
40 | 55% | Cc1cc(C(=O)Nc2cccc(S(=O)(=O)Nc3ccccc3F)c2)no1 [I-731, N-(3-(N-(2-fluorophenyl)sulfamoyl)phenyl)-5-methylisoxazole-3-carboxamide]
41 | 55% | CN(c1ccccc1)S(=O)(=O)c1cccc(NC(=O)c2cnc3n(c2=O)CCS3)c1 [I-732, N-(3-(N-methyl-N-phenylsulfamoyl)phenyl)-5-oxo-2,3-dihydro-5H-thiazolo[3,2-a]pyrimidine-6-carboxamide]
42 | 54% | COc1ncccc1C(=O)Nc1cccc(S(=O)(=O)Nc2ccc(Cl)cc2)c1 [I-733, N-(3-(N-(4-chlorophenyl)sulfamoyl)phenyl)-2-methoxynicotinamide]
43 | 54% | O=C(Nc1cccc(S(=O)(=O)Nc2ccccc2Cl)c1)c1ccc2ccccc2n1 [I-734, N-(3-(N-(2-chlorophenyl)sulfamoyl)phenyl)quinoline-2-carboxamide]
